{"source": "patent US9096597B2", "about": "(priority 2007, dated 2015)", "key": {"[1]": {"tested_on": "Lassa GP-pseudotyped-virus", "assay": "microbe, parasite or virus in culture", "format": "cell-based, Lassa fever virus"}, "[2]": {"tested_on": "Machupo pseudotyped virus", "assay": "organism not typed", "format": "cell-based", "settings": "read-out: Activity (EC50 in μM vs. pseudotyped virus) Machupo"}, "Sabiá pseudotyped virus": {"tested_on": "Sabiá pseudotyped virus", "assay": "organism not typed", "format": "cell-based", "settings": "read-out: Activity (EC50 in μM vs. pseudotyped virus) Sabiá"}, "VSVg pseudotyped virus": {"tested_on": "VSVg pseudotyped virus", "assay": "microbe, parasite or virus in culture", "format": "cell-based, vesicular stomatitis virus (VSV)", "settings": "Vesicular stomatitis virus, read-out: Activity (EC50 in μM vs. pseudotyped virus) VSVg"}, "[3]": {"tested_on": "Guanarito pseudotyped virus", "assay": "organism not typed", "format": "cell-based", "settings": "read-out: Activity (EC50 in μM vs. pseudotyped virus) Guanarito"}, "Junín pseudotyped virus": {"tested_on": "Junín pseudotyped virus", "assay": "organism not typed", "format": "cell-based", "settings": "read-out: Activity (EC50 in μM vs. pseudotyped virus) Junín"}, "[4]": {"settings": "Human immunodeficiency virus 1, read-out: Activity (EC50 in μM vs. pseudotyped virus) Lassa"}}, "note": "Counter-ions that a name gives are not always drawn. Like-named read-outs stand apart in the source and are kept apart here.", "data": [{"smiles": "CCOc1ccc(-n2cnc3cc(N(Cc4ccc(CC)cc4)C(C)=O)cnc32)cc1", "note": "[Compound 6, N-[3-(4-Ethoxy-phenyl)-3H-imidazo[4,5-b]pyridin-6-yl]-N-(4-ethyl-benzyl)-acetamide]", "values": [{"measurement": "EC50", "setting": "[1]; [4]", "value": "0.05 to 1", "unit": "µM"}, {"measurement": "EC50", "setting": "[2]", "value": "1 to 50", "unit": "µM"}]}, {"smiles": "CCOc1ccc(-n2cnc3cc(N(Cc4ccc(CC)cc4)S(C)(=O)=O)cnc32)cc1", "note": "[Compound 10, N-[3-(4-Ethoxy-phenyl)-3H-imidazo[4,5-b]pyridin-6-yl]-N-(4-ethyl-benzyl)-methanesulfonamide]", "values": [{"measurement": "EC50", "setting": "[1]; [4]", "value": "1 to 50", "unit": "µM"}, {"measurement": "EC50", "setting": "[2]", "value": "1 to 50", "unit": "µM"}]}, {"smiles": "CCOc1ccc(-n2cnc3cc(N(Cc4ccc(CC)cc4)S(=O)(=O)c4ccccc4)cnc32)cc1", "note": "[Compound 11, N-[3-(4-Ethoxy-phenyl)-3H-imidazo[4,5-b]pyridin-6-yl]-N-(4-ethyl-benzyl)-benzenesulfonamide]", "values": [{"measurement": "EC50", "setting": "[1]; [4]", "value": "0.05 to 1", "unit": "µM"}, {"measurement": "EC50", "setting": "[2]", "value": "0.05 to 1", "unit": "µM"}]}, {"smiles": "CCOc1ccc(-n2cnc3nc(NCc4ccc(CC)cc4)ccc32)cc1", "note": "[Compound 4, [1-(4-Ethoxy-phenyl)-1H-imidazo[4,5-b]pyridin-5-yl]-(4-ethyl-benzyl)-amine]", "values": [{"measurement": "EC50", "setting": "[1]; [4]", "value": "< 0.05", "unit": "µM"}, {"measurement": "EC50", "setting": "[2]", "value": "0.05 to 1", "unit": "µM"}, {"measurement": "EC50", "setting": "Sabiá pseudotyped virus", "value": "0.05 to 1", "unit": "µM"}, {"measurement": "EC50", "setting": "VSVg pseudotyped virus", "value": "> 50", "unit": "µM"}]}, {"smiles": "CCOc1ccc(-n2nnc3cc(NCc4ccc(CC)cc4)cnc32)cc1", "note": "[Compound 12, [3-(4-Ethoxy-phenyl)-3H-[1,2,3]triazolo[4,5-b]pyridin-6-yl]-(4-ethyl-benzyl)-amine]", "values": [{"measurement": "EC50", "setting": "[1]; [4]", "value": "< 0.05", "unit": "µM"}, {"measurement": "EC50", "setting": "[2]", "value": "0.05 to 1", "unit": "µM"}, {"measurement": "EC50", "setting": "Sabiá pseudotyped virus", "value": "0.05 to 1", "unit": "µM"}, {"measurement": "EC50", "setting": "VSVg pseudotyped virus", "value": "> 50", "unit": "µM"}]}, {"smiles": "CCOc1ccc(-n2cnc3cc(NCc4ccc(CC)cc4)cnc32)cc1", "note": "[Compound 1, [3-(4-Ethoxy-phenyl)-3H-imidazo[4,5-b]pyridin-6-yl]-(4-ethyl-benzyl)-amine]", "values": [{"measurement": "potency against viral entry mediated by the Lassa envelope glycoprotein", "setting": "[1]", "value": "significantly increased potency"}, {"measurement": "EC50", "setting": "[1]; Human immunodeficiency virus 1, HEK-293T, read-out: EC50 against Lassa GP-pseudotyped-virus", "value": 0.00013, "unit": "µM"}, {"measurement": "EC50", "setting": "[1]; [4]", "value": "< 0.05", "unit": "µM"}, {"measurement": "EC50", "setting": "[2]", "value": "< 0.05", "unit": "µM"}, {"measurement": "EC50", "setting": "[3]", "value": "< 0.05", "unit": "µM"}, {"measurement": "EC50", "setting": "Junín pseudotyped virus", "value": "< 0.05", "unit": "µM"}, {"measurement": "EC50", "setting": "Sabiá pseudotyped virus", "value": "< 0.05", "unit": "µM"}, {"measurement": "EC50", "setting": "VSVg pseudotyped virus", "value": "1 to 50", "unit": "µM"}]}, {"smiles": "CCOc1ccc(-n2cnc3cc(NCc4ccc(CC)cc4)cnc32)cn1", "note": "[Compound 2, [3-(6-Ethoxy-pyridin-3-yl)-3H-imidazo[4,5-b]pyridin-6-yl]-(4-ethyl-benzyl)-amine]", "values": [{"measurement": "EC50", "setting": "[1]; [4]", "value": "< 0.05", "unit": "µM"}, {"measurement": "EC50", "setting": "VSVg pseudotyped virus", "value": "1 to 50", "unit": "µM"}]}, {"smiles": "CCOc1ccc(-n2cnc3cc(N(Cc4ccc(CC)cc4)C(=O)CCC(=O)O)cnc32)cc1", "note": "[Compound 9, N-[3-(4-Ethoxy-phenyl)-3H-imidazo[4,5-b]pyridin-6-yl]-N-(4-ethyl-benzyl)-succinamic acid]", "values": [{"measurement": "EC50", "setting": "[1]; [4]", "value": "1 to 50", "unit": "µM"}, {"measurement": "EC50", "setting": "[2]", "value": "1 to 50", "unit": "µM"}]}, {"smiles": "CCOc1ccc(-n2cnc3cc(N(Cc4ccc(CC)cc4)C(=O)CN(C)C)cnc32)cc1", "note": "[Compound 8, 2-Dimethylamino-N-[3-(4-ethoxy-phenyl)-3H-imidazo[4,5-b]pyridin-6-yl]-N-(4-ethyl-benzyl)-acetamide hydrochloride]", "values": [{"measurement": "EC50", "setting": "[1]; [4]", "value": "0.05 to 1", "unit": "µM"}, {"measurement": "EC50", "setting": "[2]", "value": "0.05 to 1", "unit": "µM"}]}, {"smiles": "CCOc1ccc(-n2cnc3cc(N(Cc4ccc(CC)cc4)C(=O)c4ccccc4)cnc32)cc1", "note": "[Compound 7, N-[3-(4-Ethoxy-phenyl)-3H-imidazo[4,5-b]pyridin-6-yl]-N-(4-ethyl-benzyl)-benzamide]", "values": [{"measurement": "EC50", "setting": "[1]; [4]", "value": "0.05 to 1", "unit": "µM"}, {"measurement": "EC50", "setting": "[2]", "value": "0.05 to 1", "unit": "µM"}]}, {"smiles": "CCOc1ccc(-n2cnc3cc(NCc4ccc(C)cn4)cnc32)cc1", "note": "[Compound 3, [3-(4-Ethoxy-phenyl)-3H-imidazo[4,5-b]pyridin-6-yl]-(5-methyl-pyridin-2-ylmethyl)-amine]", "values": [{"measurement": "EC50", "setting": "[1]; [4]", "value": "0.05 to 1", "unit": "µM"}, {"measurement": "EC50", "setting": "VSVg pseudotyped virus", "value": "> 50", "unit": "µM"}]}]}
